Test results reported in patent publication US20140348897A1, “TREATMENT OR REDUCTION OF DENTAL CONDITIONS WITH ASCORBYL ESTERS” (HILL'S PET NUTRITION, INC., priority 2011, published 2014).

Experiments:
dental plaque formation [1] = assay: 8-day GCPI dental plaque quantification model, feeding food coated with ascorbyl palmitate solution; format: in vivo, dogs; conditions: four days
Description: Ascorbyl palmitate was assessed for its ability to inhibit dental plaque formation when applied indirectly, i.e., by feeding animals a pet food composition as described. In this experiment, the 8-day GCPI dental plaques quantification model of […] et al. was used ([…] et al. (2007) J. Vet. Dent. 24(1): 14-20). The teeth of the test animals are cleaned at the beginning of the study, after which the animals were fed either a control food (a commercially-available canine pet food composition) or the same food upon which a solution of ascorbyl palmitate in soybean oil was sprayed to a final concentration (w/w) of 0.1% of the total weight of the food. The food coated with the ascorbyl palmitate solution was fed to dogs over a period of four days and dental plaque accumulation was quantified and compared with their dental plaque accumulation while on the control food. […] The GCPI uses a scale of 0-100%.

dental plaque formation [2] = assay: 24-hour plaque accumulation model, direct application to the teeth with a dental swab; format: in vivo, dog; conditions: dogs
Description: Ascorbyl palmitate was assessed for its ability to inhibit dental plaque in 24-hour plaque accumulation model, according to a modification of the method of […] et al. ([…] et al. (2007) J. Vet. Dent. 24(1): 14-20), in which the compound to be tested is directly applied to the teeth as a solution using a dental swab as applicator, and the dental plaque accumulation time was set at 24 hours. A solution of ascorbyl palmitate (0.3 g in 10 mL soybean oil) was administered to the cleaned buccal tooth and gingival surfaces of each dog using a dental swab, in such a manner that 0.3 g of ascorbyl palmitate was applied. Control animals were treated with soybean oil alone. Twenty-four hours after application, the accumulation of dental plaque was quantitatively evaluated using a standardized method designated as the gingival contour plaque index (“GCPI”). […] The GCPI uses a scale of 0-100%.

CCCCCCCCCCCCCCCC(=O)OC[C@H](O)[C@H]1OC(=O)C(O)=C1O [ascorbyl palmitate]
Plaque accumulation average score (GCPI) (dental plaque formation [1]; dogs fed food sprayed with ascorbyl palmitate in soybean oil to 0.1% (w/w) of the food, GCPI scale 0-100%, control food 68.2±11.9): 53.7±12.1% | improvement in plaque accumulation versus control food (dental plaque formation [1]; dogs, food with 0.1% (w/w) ascorbyl palmitate): 21.3% | improvement in plaque accumulation versus soybean oil control (dental plaque formation [2]; 0.3 g applied directly, 24 hours): 27.8% | Plaque accumulation average score (GCPI) (dental plaque formation [2]; 0.3 g in 10 mL soybean oil applied to cleaned buccal tooth and gingival surfaces, 24 hours after application, GCPI scale 0-100%, soybean oil control 24.9±9.4): 18.9±9%
